Measured values as given in ChEMBL document CHEMBL3091435, “Protein-Ligand Interactions: Thermodynamic Effects Associated with Increasing the Length of an Alkyl Chain” (ACS Med Chem Lett, 2013).
Square brackets hold non-standard residues; d marks the D form. Peptide text beside a SMILES is read from it. pY = N[C@@H](Cc1ccc(OP(=O)(O)O)cc1)C(=O)O; Ahp(2) = CCCCC[C@H](N)C(=O)O; Nle = CCCC[C@H](N)C(=O)O; Nva = CCC[C@H](N)C(=O)O; Abu = CC[C@H](N)C(=O)O

What follows are compounds tested against Growth factor receptor-bound protein 2 (Homo sapiens) (UniProt P62993) (assay: Binding affinity to Grb2 SH2 domain (53 to 163) (unknown origin) expressed in Escherichia coli SG13009 by ITC analysis).

Row | Ka [×10⁵ /M] | SMILES
1 | 6.1 | C/C=C\[C@H](NC(=O)[C@H](Cc1ccc(OP(=O)(O)O)cc1)NC(C)=O)C(=O)N[C@@H](CC(N)=O)C(N)=O
2 | 2.2 | CC(=O)N[C@@H](Cc1ccc(OP(=O)(O)O)cc1)C(=O)N[C@@H](C)C(=O)N[C@@H](CC(N)=O)C(N)=O (Ac-[pY]-Ala-Asn-NH2)
3 | 8.6 | CC[C@H](NC(=O)[C@H](Cc1ccc(OP(=O)(O)O)cc1)NC(C)=O)C(=O)N[C@@H](CC(N)=O)C(N)=O (Ac-[pY]-[Abu]-Asn-NH2)
4 | 7.8 | CCCCC[C@H](NC(=O)[C@H](Cc1ccc(OP(=O)(O)O)cc1)NC(C)=O)C(=O)N[C@@H](CC(N)=O)C(N)=O (Ac-[pY]-[Ahp(2)]-Asn-NH2)
5 | 8.4 | CCCC[C@H](NC(=O)[C@H](Cc1ccc(OP(=O)(O)O)cc1)NC(C)=O)C(=O)N[C@@H](CC(N)=O)C(N)=O (Ac-[pY]-[Nle]-Asn-NH2)
6 | 7.6 | CCC[C@H](NC(=O)[C@H](Cc1ccc(OP(=O)(O)O)cc1)NC(C)=O)C(=O)N[C@@H](CC(N)=O)C(N)=O (Ac-[pY]-[Nva]-Asn-NH2)
